Among the data in PubChem BioAssay (NCI) are GI50 and TGI values, retold here.

Among the test systems are HCT-116 colon; SNB-19 CNS; HT29 colon; MDA-MB-435; PC-3 prostate; HL-60(TB) leukemia; CCRF-CEM leukemia; LOX IMVI melanoma; HOP-62 NSCLC; DU-145 prostate.
Holding throughout (assay): NCI tumour cell line growth inhibition, 48 h

“And” between values parts separate entries of the source, which are not always exact repeats. Identical values can stand only once.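 Values below derive from 48-hour exposures of cells grown in 96-well plates, with endpoints linearly interpolated between the two concentrations bracketing the appropriate inhibition level. The concentration for 50% growth inhibition is given as GI50. TGI is the concentration that stops growth completely.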 Some results are limits rather than exact numbers.

`COc1c(CNC(=O)CCl)cc2[nH]c(C)cc2c1CNC(=O)CCl`: the GI50 in the experiment on HCT-116 colon is 2930 nM; with SNB-19 CNS it was 12.5 µM; with HT29 colon, 5.97 µM; in the experiment on MDA-MB-435, 5200 nM; in the experiment with PC-3 prostate, 12200 nM; with HL-60(TB) leukemia it was 4.32 µM. The GI50 is 2710 nM in the experiment on CCRF-CEM leukemia, 3170 nM with LOX IMVI melanoma, 6100 nM in the experiment on HOP-62 NSCLC and 5.03 µM in the experiment with DU-145 prostate. Also, the TGI amounted to 15.7 µM in the experiment with HCT-116 colon; 91 µM in the experiment with SNB-19 CNS; 25.2 µM in the experiment on HT29 colon; 36.4 µM in the experiment on MDA-MB-435; 33.9 µM in the experiment on PC-3 prostate; 26.5 µM with HL-60(TB) leukemia. The TGI in the experiment on CCRF-CEM leukemia is above 100 µM; with LOX IMVI melanoma, 31.8 µM; in the experiment on HOP-62 NSCLC, 20.2 µM; in the experiment with DU-145 prostate, 19.7 µM.
`COc1cc2c3c(n(C)c(=O)c2cc1OC)-c1cc2c(cc1/C3=C\CCCBr)OCO2`: the GI50 with HCT-116 colon is 27200 nM; in the experiment on SNB-19 CNS it was 23.4 µM; in the experiment with HT29 colon it was above 100 µM; in the experiment with MDA-MB-435, above 100000 nM; with PC-3 prostate it was above 95200 nM; with HL-60(TB) leukemia, above 80.3 µM. Besides, the GI50 with CCRF-CEM leukemia was 14300 nM; in the experiment with LOX IMVI melanoma it was 42000 nM; in the experiment on DU-145 prostate it was above 59.6 µM. For the same molecule, the TGI in the experiment on HCT-116 colon was above 60.8 µM; in the experiment on SNB-19 CNS, above 65.8 µM; in the experiment on HT29 colon it was above 100 µM; with MDA-MB-435, above 100 µM; in the experiment on PC-3 prostate, above 100 µM; in the experiment on HL-60(TB) leukemia it was above 100 µM. In addition, the TGI in the experiment with CCRF-CEM leukemia was 50.3 µM; with LOX IMVI melanoma, above 100 µM; in the experiment with HOP-62 NSCLC, 17.1 µM; with DU-145 prostate, above 100 µM.
`COc1cc([C@@H]2c3cc4c(cc3[C@H](O)[C@H]3COC(=O)[C@H]23)OCO4)cc(OC)c1OC`: the GI50 in the experiment on HCT-116 colon was below 10 nM; with SNB-19 CNS, below 0.01 µM; with HT29 colon, below 0.01 µM; with MDA-MB-435 it was below 10 nM; in the experiment with PC-3 prostate, below 10 nM; with HL-60(TB) leukemia, below 0.01 µM. The GI50 in the experiment on CCRF-CEM leukemia was below 10 nM; with LOX IMVI melanoma it was below 10 nM; with HOP-62 NSCLC, below 5 nM; with DU-145 prostate, below 0.01 µM. For the same molecule, the TGI is 0.5 µM in the experiment with HCT-116 colon; > 100 µM and 50 µM in the experiment with SNB-19 CNS; below 0.005 µM in the experiment with MDA-MB-435; > 100 µM and 50 µM in the experiment with PC-3 prostate; below 0.005 µM in the experiment with HL-60(TB) leukemia; > 100 µM and 50 µM with LOX IMVI melanoma. Besides, the TGI was > 100 µM and 50 µM and > 75 µM with HOP-62 NSCLC; 0.5 µM in the experiment on DU-145 prostate.
On to `CCCCN(CCCC)CCCN=c1nc2c(c(N)n1-c1ccccc1)c(=S)n(-c1ccccc1)c(=S)n2-c1ccccc1`, for which the GI50 was 412 nM with HCT-116 colon; 1.29 µM in the experiment on SNB-19 CNS; 0.276 µM with HT29 colon; 301 nM in the experiment on MDA-MB-435; 590 nM in the experiment with PC-3 prostate; 0.211 µM with HL-60(TB) leukemia. Further, the GI50 is 215 nM in the experiment on CCRF-CEM leukemia, 303 nM in the experiment on LOX IMVI melanoma, 1450 nM in the experiment on HOP-62 NSCLC and 1.34 µM with DU-145 prostate. Besides, the TGI with HCT-116 colon was 1.5 µM; with SNB-19 CNS it was 2.74 µM; in the experiment on HT29 colon, 0.784 µM; in the experiment on MDA-MB-435, 0.93 µM; with PC-3 prostate, 1.94 µM; in the experiment on HL-60(TB) leukemia, above 100 µM. Also, the TGI in the experiment on LOX IMVI melanoma stood at 0.773 µM; in the experiment on HOP-62 NSCLC, 3.03 µM; in the experiment on DU-145 prostate, 2.75 µM.
Consider `CC1=C(/C=C/C(C)=C/C=C/C(C)=C/C(=O)Nc2ccc(O)cc2)C(C)(C)CCC1`, for which the GI50 was 2050 nM with HCT-116 colon; 4.83 µM in the experiment on SNB-19 CNS; 1900 nM with MDA-MB-435; 1370 nM with PC-3 prostate; 0.278 µM with HL-60(TB) leukemia; 238 nM in the experiment on CCRF-CEM leukemia. Further, the GI50 in the experiment with LOX IMVI melanoma was 588 nM; in the experiment with DU-145 prostate it was 2.93 µM. Further, the TGI is 4.6 µM and 15.7 µM with HCT-116 colon; 20.4 µM and 18.2 µM with SNB-19 CNS; 7.6 µM and 14.9 µM with HT29 colon; 5.99 µM and 18.7 µM in the experiment on MDA-MB-435; 4.61 µM and 12.7 µM with PC-3 prostate; 1.31 µM and 9.51 µM in the experiment with HL-60(TB) leukemia. In addition, the TGI with CCRF-CEM leukemia is 13.5 µM and 3.59 µM; with LOX IMVI melanoma, 2.26 µM and 4.76 µM; in the experiment with HOP-62 NSCLC, 9.95 µM and 15.2 µM; with DU-145 prostate it was 12.1 µM and 21.4 µM.
Turning to `O=C1/C(=C/c2ccccc2)CCC/C1=C\c1ccccc1`, the TGI with HCT-116 colon was 5.86 µM and 3.09 µM and 3.33 µM; in the experiment with SNB-19 CNS it was 10.9 µM and 29 µM and 31 µM; in the experiment with HT29 colon, 11.5 µM and 18.7 µM and 5.96 µM; with MDA-MB-435 it was 11 µM and 14.1 µM; with PC-3 prostate, 11 µM and 42.5 µM; with HL-60(TB) leukemia, 36.5 µM and > 53 µM and 90 µM. The TGI in the experiment with CCRF-CEM leukemia is 36.5 µM and 51.1 µM and > 100 µM; with LOX IMVI melanoma it was 8.65 µM and 5.92 µM and 3.64 µM; in the experiment with HOP-62 NSCLC, 13.6 µM and 40 µM and 41.1 µM; with DU-145 prostate it was 13.5 µM and 34 µM. For the same molecule, the GI50 is 6 µM and 12.2 µM with SNB-19 CNS; 2.54 µM in the experiment with HT29 colon; 2710 nM in the experiment with MDA-MB-435; 14300 nM in the experiment on PC-3 prostate; 10.4 µM and 26.1 µM with HL-60(TB) leukemia; 18500 nM with CCRF-CEM leukemia. For the same molecule, the GI50 in the experiment on LOX IMVI melanoma was 3830 nM and 1520 nM; with HOP-62 NSCLC, 7640 nM; with DU-145 prostate it was 16.9 µM.
Turning to `CCC1CC(=O)N(SCC(N)C(=O)O)C1=O` (stereo not drawn), the TGI in the experiment on HCT-116 colon, in the experiment with SNB-19 CNS, with HT29 colon, with MDA-MB-435, in the experiment with PC-3 prostate and in the experiment with HL-60(TB) leukemia was above 100 µM each time. For the same molecule, the TGI in the experiment on CCRF-CEM leukemia, in the experiment with LOX IMVI melanoma, with HOP-62 NSCLC and with DU-145 prostate was above 100 µM each time.
For `Oc1cc(O)c2c(=S)cc(-c3ccc(Cl)cc3)oc2c1`, the GI50 was 2840 nM in the experiment on HCT-116 colon; 3.68 µM with SNB-19 CNS; 19.7 µM in the experiment with HT29 colon; 3410 nM with MDA-MB-435; 2840 nM with PC-3 prostate; 3.17 µM in the experiment with HL-60(TB) leukemia. For the same molecule, the GI50 was 4020 nM in the experiment on CCRF-CEM leukemia, 2920 nM with LOX IMVI melanoma, 2030 nM in the experiment with HOP-62 NSCLC and 4.09 µM in the experiment with DU-145 prostate. The TGI in the experiment on HCT-116 colon came out at 10.4 µM; in the experiment on SNB-19 CNS, 16.3 µM; in the experiment with HT29 colon, 39.7 µM; in the experiment on MDA-MB-435, 14 µM; in the experiment with PC-3 prostate, 12.3 µM; in the experiment with HL-60(TB) leukemia, 22.5 µM. The TGI with CCRF-CEM leukemia is above 63.1 µM; in the experiment with LOX IMVI melanoma, 11.6 µM; in the experiment on HOP-62 NSCLC it was 11.2 µM; in the experiment on DU-145 prostate it was 35.1 µM.
